Drawing on ChEMBL document CHEMBL5465560, “Selectivity Literature for EUbOPEN Chemogenomic Library” (2024), this text covers % of control and % of inhibition for eight compounds.

For assay [1], the target named is T1, Serine/threonine-protein kinase Chk1 (Homo sapiens) (UniProt O14757).
T1 sequence (whole entry): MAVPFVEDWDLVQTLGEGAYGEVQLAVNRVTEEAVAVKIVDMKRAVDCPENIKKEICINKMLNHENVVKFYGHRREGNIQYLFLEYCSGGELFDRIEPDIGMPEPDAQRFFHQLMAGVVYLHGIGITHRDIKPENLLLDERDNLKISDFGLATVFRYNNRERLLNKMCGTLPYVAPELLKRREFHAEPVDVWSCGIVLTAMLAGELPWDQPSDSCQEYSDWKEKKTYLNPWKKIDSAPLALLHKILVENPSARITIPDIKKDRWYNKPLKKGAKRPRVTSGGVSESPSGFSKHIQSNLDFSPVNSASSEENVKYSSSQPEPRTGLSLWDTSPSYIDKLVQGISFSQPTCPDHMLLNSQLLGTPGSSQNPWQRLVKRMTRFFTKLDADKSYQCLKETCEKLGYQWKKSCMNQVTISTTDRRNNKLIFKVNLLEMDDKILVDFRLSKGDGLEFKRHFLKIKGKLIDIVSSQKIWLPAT
In words: Selectivity interaction (ProQinase) EUB0000171b CHEK1.

Assay [2] has as its target Serine/threonine-protein kinase MRCK beta (Homo sapiens) (UniProt Q9Y5S2). The assay can be described thus: Selectivity interaction (Ambit KINOMEscan and KiNATiv profiling in Jurkat cells) EUB0000090b CDC42BPB. Particulars: at 1 µM. The format is cell-based.
In assay [3] the target is Mitogen-activated protein kinase 11 (Homo sapiens) (UniProt Q15759). In words: Selectivity interaction (Millipore kinase profiler) EUB0000124b MAPK11. The note with it: at 10 µM.
Sequence of Mitogen-activated protein kinase 11 (Homo sapiens) (Q15759 whole entry): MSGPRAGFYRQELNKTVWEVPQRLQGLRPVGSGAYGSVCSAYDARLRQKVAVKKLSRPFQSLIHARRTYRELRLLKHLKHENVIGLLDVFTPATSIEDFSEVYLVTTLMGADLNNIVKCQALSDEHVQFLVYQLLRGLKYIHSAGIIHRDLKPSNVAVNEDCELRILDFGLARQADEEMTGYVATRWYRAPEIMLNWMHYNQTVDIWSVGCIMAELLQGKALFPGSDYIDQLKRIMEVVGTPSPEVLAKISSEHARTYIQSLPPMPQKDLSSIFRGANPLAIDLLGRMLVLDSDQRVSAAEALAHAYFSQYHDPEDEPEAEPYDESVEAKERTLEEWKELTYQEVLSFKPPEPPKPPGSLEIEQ
In assay [4] the target is T2, Protein kinase C iota type (Homo sapiens) (UniProt P41743).
T2 sequence (whole entry): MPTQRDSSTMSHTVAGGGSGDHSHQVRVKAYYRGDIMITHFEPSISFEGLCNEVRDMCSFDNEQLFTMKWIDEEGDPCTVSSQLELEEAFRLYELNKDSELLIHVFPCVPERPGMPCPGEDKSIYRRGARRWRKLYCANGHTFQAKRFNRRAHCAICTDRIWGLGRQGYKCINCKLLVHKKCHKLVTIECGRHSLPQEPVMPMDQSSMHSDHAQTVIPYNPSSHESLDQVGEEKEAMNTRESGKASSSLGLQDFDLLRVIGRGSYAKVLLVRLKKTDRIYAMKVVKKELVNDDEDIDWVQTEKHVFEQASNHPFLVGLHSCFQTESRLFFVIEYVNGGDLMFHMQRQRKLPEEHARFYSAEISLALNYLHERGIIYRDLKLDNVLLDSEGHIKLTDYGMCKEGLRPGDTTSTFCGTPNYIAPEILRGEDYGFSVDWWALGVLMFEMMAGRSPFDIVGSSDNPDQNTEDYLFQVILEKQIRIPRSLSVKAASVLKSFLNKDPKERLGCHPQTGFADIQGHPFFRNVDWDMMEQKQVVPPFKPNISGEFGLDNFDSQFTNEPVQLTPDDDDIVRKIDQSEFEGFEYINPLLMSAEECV
In words: Selectivity interaction (KinomeScan (DiscoverX)) EUB0000695a PRKCI. The note with it: at 100 nM.

In assay [5] the test system is Tyrosine-protein kinase ABL1 (Homo sapiens), P00519 [T315I]. In words: Selectivity interaction (KinomeScan (DiscoverX)) EUB0000045b ABL1. The note with it: at 1 µM.
The target in assay [6] is T3, Dual specificity mitogen-activated protein kinase kinase 3 (Homo sapiens) (UniProt P46734).
T3 sequence (whole entry): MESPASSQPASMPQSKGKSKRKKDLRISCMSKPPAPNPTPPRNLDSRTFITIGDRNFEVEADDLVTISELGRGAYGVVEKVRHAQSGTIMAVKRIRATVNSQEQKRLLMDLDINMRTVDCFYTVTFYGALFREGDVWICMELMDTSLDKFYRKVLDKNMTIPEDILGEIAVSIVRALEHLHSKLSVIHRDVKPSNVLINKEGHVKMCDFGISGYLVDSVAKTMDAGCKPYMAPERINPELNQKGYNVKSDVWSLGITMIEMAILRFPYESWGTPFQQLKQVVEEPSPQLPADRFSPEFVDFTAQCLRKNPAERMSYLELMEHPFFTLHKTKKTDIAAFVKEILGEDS
The assay can be described thus: Selectivity interaction (KinomeScan (DiscoverX)) EUB0000666a MAP2K3. The note with it: at 10 µM.

Assay [7] deals with T4, Non-receptor tyrosine-protein kinase TNK1 (Homo sapiens) (UniProt Q13470).
T4 sequence (whole entry): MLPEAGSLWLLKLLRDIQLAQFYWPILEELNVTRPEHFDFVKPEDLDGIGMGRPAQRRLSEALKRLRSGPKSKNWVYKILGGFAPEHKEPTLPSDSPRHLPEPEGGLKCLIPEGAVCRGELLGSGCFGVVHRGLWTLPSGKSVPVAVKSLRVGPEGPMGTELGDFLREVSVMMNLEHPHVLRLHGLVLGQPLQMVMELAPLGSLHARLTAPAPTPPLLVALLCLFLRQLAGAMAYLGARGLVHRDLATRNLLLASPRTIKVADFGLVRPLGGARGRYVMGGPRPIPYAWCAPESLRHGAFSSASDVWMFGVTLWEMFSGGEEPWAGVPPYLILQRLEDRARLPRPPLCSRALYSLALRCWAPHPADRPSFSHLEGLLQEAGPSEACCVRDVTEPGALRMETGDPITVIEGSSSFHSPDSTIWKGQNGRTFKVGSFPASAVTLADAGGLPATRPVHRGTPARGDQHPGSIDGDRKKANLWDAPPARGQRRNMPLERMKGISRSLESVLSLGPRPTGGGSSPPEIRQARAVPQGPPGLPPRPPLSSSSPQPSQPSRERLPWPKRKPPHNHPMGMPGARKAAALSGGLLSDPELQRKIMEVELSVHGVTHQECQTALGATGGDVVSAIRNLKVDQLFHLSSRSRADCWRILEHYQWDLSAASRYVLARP
The assay can be described thus: Selectivity interaction (KinomeScan (DiscoverX)) EUB0000607a TNK1. Particulars: at 10 µM.

The target in assay [8] is 5'-AMP-activated protein kinase catalytic subunit alpha-1 (Homo sapiens, UniProt Q13131). The assay can be described thus: Selectivity interaction (ActivX KiNativ screen (kinase selectivity in THP-1 cell lysates)) EUB0000639a PRKAA1. The format is subcellular. The note with it: lysate, at 5 µM.
Sequence of 5'-AMP-activated protein kinase catalytic subunit alpha-1 (Q13131 whole entry, looked up): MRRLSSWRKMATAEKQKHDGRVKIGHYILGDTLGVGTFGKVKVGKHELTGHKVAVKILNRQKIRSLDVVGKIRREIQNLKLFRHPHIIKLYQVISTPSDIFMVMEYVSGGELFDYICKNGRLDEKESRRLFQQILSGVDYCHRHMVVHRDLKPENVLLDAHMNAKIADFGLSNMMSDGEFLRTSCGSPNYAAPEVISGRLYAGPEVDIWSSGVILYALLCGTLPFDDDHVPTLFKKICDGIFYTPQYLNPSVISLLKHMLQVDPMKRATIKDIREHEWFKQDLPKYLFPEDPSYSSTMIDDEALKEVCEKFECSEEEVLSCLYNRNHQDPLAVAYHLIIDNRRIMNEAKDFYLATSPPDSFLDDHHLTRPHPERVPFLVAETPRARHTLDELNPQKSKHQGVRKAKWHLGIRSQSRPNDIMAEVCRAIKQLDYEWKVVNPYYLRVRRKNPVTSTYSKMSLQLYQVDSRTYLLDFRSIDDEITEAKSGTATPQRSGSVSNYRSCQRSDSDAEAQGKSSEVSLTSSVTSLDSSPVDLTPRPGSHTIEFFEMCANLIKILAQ

Sequence of Serine/threonine-protein kinase MRCK beta (Homo sapiens) (Q9Y5S2 whole entry): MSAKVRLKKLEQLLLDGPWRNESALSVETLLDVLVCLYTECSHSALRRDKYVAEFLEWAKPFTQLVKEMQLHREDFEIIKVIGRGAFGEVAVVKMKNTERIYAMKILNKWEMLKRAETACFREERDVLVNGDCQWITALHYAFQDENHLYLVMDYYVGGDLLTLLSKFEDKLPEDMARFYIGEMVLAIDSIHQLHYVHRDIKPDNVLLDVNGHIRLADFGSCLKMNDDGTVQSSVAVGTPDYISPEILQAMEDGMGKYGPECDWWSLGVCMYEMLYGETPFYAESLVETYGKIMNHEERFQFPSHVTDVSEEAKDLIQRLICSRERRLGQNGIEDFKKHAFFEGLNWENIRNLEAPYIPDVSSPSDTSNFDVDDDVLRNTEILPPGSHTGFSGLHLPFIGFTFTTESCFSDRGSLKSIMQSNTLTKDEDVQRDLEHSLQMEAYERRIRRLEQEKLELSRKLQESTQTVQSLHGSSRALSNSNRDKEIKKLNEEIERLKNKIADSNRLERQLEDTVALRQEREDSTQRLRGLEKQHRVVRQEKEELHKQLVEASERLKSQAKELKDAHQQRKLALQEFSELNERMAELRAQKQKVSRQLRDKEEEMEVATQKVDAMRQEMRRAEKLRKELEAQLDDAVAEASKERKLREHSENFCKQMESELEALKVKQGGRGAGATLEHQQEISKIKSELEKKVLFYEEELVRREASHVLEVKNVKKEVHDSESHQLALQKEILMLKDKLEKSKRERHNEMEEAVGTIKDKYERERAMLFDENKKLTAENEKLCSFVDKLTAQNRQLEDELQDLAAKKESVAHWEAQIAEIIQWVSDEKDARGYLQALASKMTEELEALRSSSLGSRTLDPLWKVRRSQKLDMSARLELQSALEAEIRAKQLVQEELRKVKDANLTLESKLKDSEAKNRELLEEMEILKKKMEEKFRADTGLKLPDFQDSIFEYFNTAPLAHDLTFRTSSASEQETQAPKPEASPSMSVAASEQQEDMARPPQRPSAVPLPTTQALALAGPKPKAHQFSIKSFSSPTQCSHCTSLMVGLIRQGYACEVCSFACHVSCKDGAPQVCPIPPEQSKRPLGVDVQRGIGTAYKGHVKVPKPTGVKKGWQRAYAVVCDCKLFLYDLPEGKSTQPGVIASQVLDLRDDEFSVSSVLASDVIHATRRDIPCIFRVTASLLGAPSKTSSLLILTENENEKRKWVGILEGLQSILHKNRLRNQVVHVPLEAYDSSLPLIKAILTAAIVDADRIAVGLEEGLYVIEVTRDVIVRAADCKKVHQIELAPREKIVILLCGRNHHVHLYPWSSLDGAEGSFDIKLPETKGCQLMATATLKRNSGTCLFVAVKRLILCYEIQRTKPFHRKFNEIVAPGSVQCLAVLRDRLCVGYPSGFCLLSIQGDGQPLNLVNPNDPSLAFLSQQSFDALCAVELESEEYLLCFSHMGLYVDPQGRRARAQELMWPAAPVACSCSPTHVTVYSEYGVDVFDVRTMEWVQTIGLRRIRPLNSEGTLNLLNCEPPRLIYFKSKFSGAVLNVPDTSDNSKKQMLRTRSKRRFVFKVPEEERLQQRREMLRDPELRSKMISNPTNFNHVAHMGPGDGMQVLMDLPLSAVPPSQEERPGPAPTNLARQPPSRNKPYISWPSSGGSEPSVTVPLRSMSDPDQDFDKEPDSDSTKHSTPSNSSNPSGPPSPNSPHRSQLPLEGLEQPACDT

As for `C=CC(=O)Nc1cccc(C(=O)Nc2ccc(Nc3cc(-c4[nH]c(SC)nc4C)ccn3)cc2)c1`, the figures for the % of control in assay [1] (at 1 µM) and in assay [1] (at 5 µM) were 94% and 100%, respectively.
The compound `CN(C)C/C=C/C(=O)Nc1ccc(C(=O)N2CCCC(Nc3ncc(Cl)c(-c4c[nH]c5ccccc45)n3)C2)cc1` (centres undefined) showed a % of control in assay [2] of 96%.
`CC(=O)Nc1cccc(-n2c(=O)n(C3CC3)c(=O)c3c(Nc4ccc(I)cc4F)n(C)c(=O)c(C)c32)c1` registered a % of control in assay [3] of 104%.
`Cc1cc(F)c(C(=O)Nc2cccc(-c3nncn3C(C)C)n2)cc1-n1cnc(C2CC2)c1` yielded a % of control in assay [4] of 95%.
`C=CC(=O)Nc1cc(-n2c(=O)ccc3cnc4ccc(-c5ccc(NS(C)(=O)=O)cc5)cc4c32)ccc1C` gave a % of control in assay [5] of 87%.
For the compound `O=C(NOC[C@H](O)CO)c1ccc(F)c(F)c1Nc1ccc(I)cc1F`, in assay [6], the % of control came to 89%.
Take `CNC(=O)Nc1ccc(-c2nc(N3CC4CCC(C3)O4)c3cnn(C4CCC5(CC4)OCCO5)c3n2)cc1`: in assay [7], the % of control was determined as 78%.
In the case of `CC[C@@H]1[C@H](F)C(=O)N[C@@H]1COc1nccc2cc(C(N)=O)c(OC)cc12` [ZIMLOVISERTIB], the % of inhibition in assay [8] worked out at 21.9%.
